The test system of assay [1] is spasticity. Particulars: CREAE mice; cited from earlier work.
Assay [2] deals with neuropathic pain. As to conditions: rats; Chung spinal nerve ligation model; cited from earlier work.
Assay [3] deals with acute thermal nociception. As to conditions: rats; Hargraves test; cited from earlier work.
For assay [4], the target named is T1, FAAH (Homo sapiens, UniProt O00519).
T1 sequence (O00519 1-579): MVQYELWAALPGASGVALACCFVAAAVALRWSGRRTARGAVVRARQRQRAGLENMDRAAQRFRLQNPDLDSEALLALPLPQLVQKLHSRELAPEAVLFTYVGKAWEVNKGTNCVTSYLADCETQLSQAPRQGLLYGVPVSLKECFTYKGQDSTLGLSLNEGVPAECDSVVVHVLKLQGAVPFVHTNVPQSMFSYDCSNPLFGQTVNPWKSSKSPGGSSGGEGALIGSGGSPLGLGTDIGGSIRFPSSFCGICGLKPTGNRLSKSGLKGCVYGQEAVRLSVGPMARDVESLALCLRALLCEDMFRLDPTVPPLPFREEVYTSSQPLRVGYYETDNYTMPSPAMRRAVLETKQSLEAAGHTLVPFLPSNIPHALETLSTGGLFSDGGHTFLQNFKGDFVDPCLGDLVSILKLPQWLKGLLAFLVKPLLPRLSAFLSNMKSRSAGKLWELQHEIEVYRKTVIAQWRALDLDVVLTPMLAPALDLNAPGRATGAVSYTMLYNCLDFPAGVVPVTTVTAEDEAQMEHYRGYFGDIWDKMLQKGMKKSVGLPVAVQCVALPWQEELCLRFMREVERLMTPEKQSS
Kind of assay: Assay Method 1: FAAH assay, 3H-anandamide hydrolysis in cell homogenate.

The target of assay [5] is T2, Rat FAAH (Rattus norvegicus, UniProt P97612).
T2 construct: expressed in transfected cells
T2 sequence (P97612 1-579): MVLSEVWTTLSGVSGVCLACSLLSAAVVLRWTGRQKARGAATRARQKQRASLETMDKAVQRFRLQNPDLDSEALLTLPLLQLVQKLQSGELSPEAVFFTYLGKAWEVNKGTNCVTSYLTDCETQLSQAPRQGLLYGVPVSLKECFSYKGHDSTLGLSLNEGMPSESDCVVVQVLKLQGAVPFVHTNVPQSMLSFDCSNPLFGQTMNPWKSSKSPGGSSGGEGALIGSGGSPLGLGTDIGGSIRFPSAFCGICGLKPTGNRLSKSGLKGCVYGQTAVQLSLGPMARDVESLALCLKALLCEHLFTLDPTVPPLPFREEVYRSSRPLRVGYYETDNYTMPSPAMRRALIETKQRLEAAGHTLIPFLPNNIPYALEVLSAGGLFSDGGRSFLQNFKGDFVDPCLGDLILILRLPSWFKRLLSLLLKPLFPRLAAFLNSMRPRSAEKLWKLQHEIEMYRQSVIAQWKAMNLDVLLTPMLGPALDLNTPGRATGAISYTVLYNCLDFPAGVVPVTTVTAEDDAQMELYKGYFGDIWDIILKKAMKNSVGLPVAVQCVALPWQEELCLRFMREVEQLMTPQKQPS
Description: Assay Method 2: FAAH assay, 3H-anandamide hydrolysis in cell homogenate. The format is biochemical. As to conditions: average of results obtained, > value = solubility limit or highest concentration tested.

Assay [6] has as its system thermal nociception. As to conditions: rat hot plate test; cited from earlier work. On the technique in general: Thermal pain tests record how soon the animal reacts.
Assay [7] concerns thermal nociception. As to conditions: rats; tail emersion test; cited from earlier work.
The target of assay [8] is T1, FAAH. As to conditions: cited from earlier work.
For assay [9] the following is noted: rat formalin test; cited from earlier work.
For assay [10], the system named is anxiety. Particulars: rats; zero plus maze; cited from earlier work.

Here are results for 15 compounds from patent publication US8877769B2, “Heteroaryl-substituted urea modulators of fatty acid amide hydrolase” (Janssen Pharmaceutica NV, priority 2008, dated 2014).

Usually IC50 stands for the point on the concentration scale where inhibition reaches its midpoint. A higher IC50 goes with a need for much substance.

Turning to `CCCCCCCCCCCCCCCCS(=O)(=O)F` [AM374], the reduction of spasticity entry in assay [1] was “significantly reduce spasticity”.
Turning to `Cc1nc(-c2ccccc2)c(-c2ccccc2)n1CCCCCCNC(=O)Oc1ccccc1F` [BMS-1], the analgesic effect result in [2] and in assay [3] was “analgesic effect” each time.
On to `O=C(Nc1cccc2nccn12)N1CCN(Cc2ccc3c(c2)OC(F)(F)O3)CC1` [Example 71, 4-(2,2-Difluoro-benzo[1,3]dioxol-5-ylmethyl)-piperazine-1-carboxylic acid imidazo[1,2-a]pyridin-5-ylamide], for which the IC50 in [4] and in [5] was 140 nM in each case.
For `O=C(Nc1ccn2ccnc2c1)N1CCN(Cc2ccc3c(c2)OC(F)(F)O3)CC1` [Example 73, 4-(2,2-Difluoro-benzo[1,3]dioxol-5-ylmethyl)-piperazine-1-carboxylic acid imidazo[1,2-a]pyridin-7-ylamide], the 50% inhibitory concentration (IC50) worked out at 1400 nM in [4] and 1600 nM in assay [5].
Taken in the same sequence, the figures for `N#Cc1cccnc1Oc1cccc(CN2CCN(C(=O)Nc3cnc4[nH]ccc4c3)CC2)c1` [Example 77, 4-[3-(3-Cyano-pyridin-2-yloxy)-benzyl]-piperazine-1-carboxylic acid (1H-pyrrolo[2,3-b]pyridin-5-yl)-amide] were 48 nM and 2000 nM.
The like results for `N#Cc1ccnc(Oc2cccc(CN3CCN(C(=O)Nc4cnc5[nH]ccc5c4)CC3)c2)c1` [Example 78, 4-[3-(4-Cyano-pyridin-2-yloxy)-benzyl]-piperazine-1-carboxylic acid (1H-pyrrolo[2,3-b]pyridin-5-yl)-amide] were, in that order, 84 nM and 5000 nM.
Turning to `N#Cc1ccc(Oc2cccc(CN3CCN(C(=O)Nc4cnc5[nH]ccc5c4)CC3)c2)nc1` [Example 79, 4-[3-(5-Cyano-pyridin-2-yloxy)-benzyl]-piperazine-1-carboxylic acid (1H-pyrrolo[2,3-b]pyridin-5-yl)-amide], the IC50 amounted to 22 nM in [4] and 270 nM in [5].
For the compound `O=C(Nc1cnc2[nH]ccc2c1)N1CCN(Cc2cccc(Oc3ccc(C(F)(F)F)nn3)c2)CC1` [Example 80, 4-[3-(6-Trifluoromethyl-pyridazin-3-yloxy)-benzyl]-piperazine-1-carboxylic acid (1H-pyrrolo[2,3-b]pyridin-5-yl)-amide], the 50% inhibitory concentration (IC50) is 3 nM in assay [4] and 180 nM in assay [5].
Taken in the same sequence, the figures for `O=C(Nc1cnc2[nH]ccc2c1)N1CCC(Cc2ccc(Cl)c(Cl)c2)CC1` [Example 81, 4-(3,4-Dichloro-benzyl)-piperidine-1-carboxylic acid (1H-pyrrolo[2,3-b]pyridin-5-yl)-amide] were 3 nM and 3 nM.
Taken in the same sequence, the figures for `O=C(Nc1cnc2ccccn12)N1CCC(Cc2ccc(Cl)c(Cl)c2)CC1` [Example 82, 4-(3,4-Dichlorobenzyl)-N-imidazo[1,2-a]pyridin-3-ylpiperidine-1-carboxamide] were 900 nM and 800 nM.
Take `O=C(Nc1cnc2cccnn12)N1CCC(Cc2ccc(Cl)c(Cl)c2)CC1` [Example 83, 4-(3,4-Dichlorobenzyl)-N-imidazo[1,2-b]pyridazin-3-ylpiperidine-1-carboxamide]: the values for the concentration for half-maximal inhibition (IC50) in assay [4] and in assay [5] were 15 nM and 30 nM, respectively.
For the compound `O=C(Nc1nocc1Cl)N1CCC(Cc2cnc3ccccc3c2)CC1` [Example 84, 4-Quinolin-3-ylmethyl-piperidine-1-carboxylic acid (4-chloro-isoxazol-3-yl)-amide], the values for the half-maximal inhibitory concentration (IC50) in assay [4] and in assay [5] were 14 nM and 35 nM, respectively.
Taken in the same sequence, the figures for `O=C(Nc1nocc1Cl)N1CCN(Cc2ccc3c(c2)OC(F)(F)O3)CC1` [Example 86, 4-(2,2-Difluoro-benzo[1,3]dioxol-5-ylmethyl)-piperazine-1-carboxylic acid (4-chloro-isoxazol-3-yl)-amide] were 73 nM and 280 nM.
As to `O=C(CCCCCCc1ccccc1)c1ncc(-c2ccccn2)o1` [OL-135], the “analgesic efficacy / activity” value in assay [6] is “analgesic activity”. The analgesic activity result in assay [7] is on record as “analgesic activity”. Also, in [8], the “inhibition of FAAH” value is reported as “potent inhibitor”.
Regarding `NC(=O)c1cccc(-c2cccc(OC(=O)NC3CCCCC3)c2)c1` [URB-597], the “analgesic efficacy / activity” value in assay [6] is recorded as “analgesic efficacy”. In addition, the analgesic efficacy entry in [9] is reported as “analgesic efficacy”. Moreover, the “efficacy in anxiety model” value in assay [10] is on record as “efficacy”.
